For orientation: Ki means the equilibrium dissociation constant of an inhibitor or competing ligand from its target. Broadly, the melting point is the temperature, or range, at which the solid turns liquid.

The values that follow come from patent US7923561B2 (Hoffmann-La Roche Inc., priority 2006, dated 2011).

T1 sequence (P47898 whole entry): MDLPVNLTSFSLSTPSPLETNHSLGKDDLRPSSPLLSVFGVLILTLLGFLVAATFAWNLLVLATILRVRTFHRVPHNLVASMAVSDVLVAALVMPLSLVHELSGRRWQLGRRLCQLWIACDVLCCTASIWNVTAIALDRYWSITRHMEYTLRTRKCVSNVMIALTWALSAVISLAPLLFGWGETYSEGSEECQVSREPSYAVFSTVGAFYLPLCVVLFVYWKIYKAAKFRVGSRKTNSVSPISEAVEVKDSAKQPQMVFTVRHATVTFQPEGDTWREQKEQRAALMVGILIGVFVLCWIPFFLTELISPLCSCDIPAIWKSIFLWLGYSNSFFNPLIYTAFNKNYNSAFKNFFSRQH

One data set has as its target T1, recombinant human 5-HT5A receptor (Homo sapiens, UniProt P47898).
T1 construct: expressed in transfected cells; host or cells: HEK-EBNA (Human Embryonic Kidney-EBNA) cells, transient cDNA expression, membranes
The experiment in a line: [3H]LSD radioligand binding assay, membranes of HEK-EBNA cells transiently expressing 5-HT5A receptors. As to conditions: [3H]LSD approx. 1 nM, SPA beads, 120 min at room temperature; Ki from IC50 by Cheng-Prussoff equation. The protocol:
A [^3H]LSD radioligand binding assay was used to determine the affinity of the compounds for the recombinant human 5-HT5A receptor, in membranes from transiently (cDNA) expressed 5-HT5A receptors in Human Embryonic Kidney-EBNA (HEK-EBNA) cells. Assay buffer consisted of Tris (50 mM) buffer containing 1 mM EGTA, 10 mM MgCl2 (pH 7.4) and 10 μM pargyline. The binding assay was carried out in 96-well-plates in the presence of [^3H]LSD (approximately 1 nM), approximately 2 μg/well of membrane protein, and 0.5 mg of Ysi-poly-1-lysine SPA beads in a final volume of 200 μl of buffer. Non-specific binding was defined using methiothepin 2 μM. Compounds were tested at 10 concentrations. All assays were conducted in duplicate and repeated at least two times. Assay plates were incubated for 120 min at room temperature before centrifugation. Bound ligand was determined using a Packard Topcount scintillation counter. IC50 values were calculated using a non-linear curve fitting program and Ki values calculated using the Cheng-Prussoff equation.
As for `c1ccc2c(c1)CC[C@H]2Nc1ccc2c(NCc3cnc[nH]3)cccc2n1` [Example 43, N5-(3H-Imidazol-4-ylmethyl)-N2-(R)-indan-1-yl-quinoline-2,5-diamine], the Ki amounted to 6.45 nM.

With `O=C(Nc1cccc2nc(N[C@@H]3CCc4ccccc43)ccc12)c1cc(F)cc(F)c1` [Example 45, 3,5-Difluoro-N-[2-((R)-indan-1-ylamino)-quinolin-5-yl]-benzamide], the Ki is 97.7 nM. On the same count and under the same terms, for `c1ccc2c(c1)CC[C@H]2Nc1ccc2c(NCc3ncc[nH]3)cccc2n1` [Example 49, N5-(1H-Imidazol-2-ylmethyl)-N2-(R)-indan-1-yl-quinoline-2,5-diamine] the value was 22.5 nM; for `c1ccc2c(c1)CC[C@H]2Nc1ccc2c(NCc3cc[nH]n3)cccc2n1` [Example 50, N2-(R)-Indan-1-yl-N5-(1H-pyrazol-3-ylmethyl)-quinoline-2,5-diamine], 13.6 nM. The same measure, in the same setting: the same measure for `Cc1nc(CNc2cccc3nc(N[C@@H]4CCc5ccccc54)ccc23)c[nH]1` [Example 53]: 7.57 nM; for `Cn1cc(CNc2cccc3nc(N[C@@H]4CCc5ccccc54)ccc23)cn1` [Example 55, N2-(R)-Indan-1-yl-N5-(1-methyl-1H-pyrazol-4-ylmethyl)-quinoline-2,5-diamine]: 25.6 nM; for `c1ccc2c(c1)CC[C@H]2Nc1ccc2c(NCc3cccc4[nH]ccc34)cccc2n1` [Example 56, N2-(R)-Indan-1-yl-N5-(1H-indol-4-ylmethyl)-quinoline-2,5-diamine]: 1.65 nM.

Take `COc1cccc2c1C(Nc1ccc3c(NCc4c[nH]cn4)cccc3n1)CC2` (stereo not shown) [Example 58, N5-(1H-Imidazol-4-ylmethyl)-N2-(7-methoxy-indan-1-yl)-quinoline-2,5-diamine]: the Ki was found to be 2.36 nM. `c1ccc(-c2cccc3nc(N[C@@H]4CCc5ccccc54)ccc23)cc1` [Example 63, (R)-Indan-1-yl-(5-phenyl-quinolin-2-yl)-amine]: the inhibitory constant (Ki) is 229 nM.

For the compound `CN(C)CCOc1ccccc1CNc1cccc2nc(N[C@@H]3CCc4ccccc43)ccc12` [Example 64, N5-[2-(2-Dimethylamino-ethoxy)-benzyl]-N2-(R)-indan-1-yl-quinoline-2,5-diamine], the Ki turned out to be 6.03 nM.

Regarding `Cc1ccccc1-c1cccc2nc(N[C@@H]3CCc4ccccc43)ccc12` [Example 65, (R)-Indan-1-yl-(5-o-tolyl-quinolin-2-yl)-amine], the inhibition constant (Ki) is 173 nM. Same read-out and setting: for `c1cncc(-c2cccc3nc(N[C@@H]4CCc5ccccc54)ccc23)c1` [Example 66, (R)-Indan-1-yl-(5-pyridin-3-yl-quinolin-2-yl)-amine] the value was 320 nM; for `c1ccc2c(c1)CC[C@H]2Nc1ccc2c(Nc3cccc4cc[nH]c34)cccc2n1` [Example 69, N2-(R)-Indan-1-yl-N5-(1H-indol-7-yl)-quinoline-2,5-diamine], 5.61 nM; for `c1ccc2c(c1)CC[C@H]2Nc1ccc2c(Nc3cccc4[nH]ccc34)cccc2n1` [Example 71, N2-(R)-Indan-1-yl-N5-(1H-indol-4-yl)-quinoline-2,5-diamine], 2.94 nM.

For the compound `c1ccc2c(c1)CC[C@H]2Nc1ccc2c(Nc3ccc4[nH]ccc4c3)cccc2n1` [Example 72, N2-(R)-Indan-1-yl-N5-(1H-indol-5-yl)-quinoline-2,5-diamine], the inhibitory constant (Ki) came to 6 nM.

As to `c1ccc2c(c1)CC[C@H]2Nc1ccc2c(Nc3ccc4cc[nH]c4c3)cccc2n1` [Example 73, N2-(R)-Indan-1-yl-N5-(1H-indol-6-yl)-quinoline-2,5-diamine], the inhibition constant Ki was 4.7 nM. Same read-out and setting: for `c1ccc2c(c1)CC[C@H]2Nc1ccc2c(-c3cccc4[nH]ccc34)cccc2n1` [Example 74, (R)-Indan-1-yl-[5-(1H-indol-4-yl)-quinolin-2-yl]-amine] the value was 41.7 nM. As to `Clc1ccccc1-c1cccc2nc(N[C@@H]3CCc4ccccc43)ccc12` [Example 75, [5-(2-Chloro-phenyl)-quinolin-2-yl]-(R)-indan-1-yl-amine], the inhibition constant Ki stood at 127 nM.

On to `Cc1cc(Nc2cccc3nc(N[C@@H]4CCc5ccccc54)ccc23)n(C)n1` [Example 76, N5-(2,5-Dimethyl-2H-pyrazol-3-yl)-N2-(R)-indan-1-yl-quinoline-2,5-diamine], for which the Ki turned out to be 33 nM. The same measure, in the same setting: for `Fc1ccc(Nc2cccc3nc(N[C@@H]4CCc5ccccc54)ccc23)cc1` [Example 77, N5-(4-Fluoro-phenyl)-N2-(R)-indan-1-yl-quinoline-2,5-diamine] the value was 6.38 nM; for `O=C(Nc1cccc2nc(N[C@@H]3CCc4ccccc43)ccc12)c1ccc(F)cc1` [Example 78, 4-Fluoro-N-[2-((R)-indan-1-ylamino)-quinolin-5-yl]-benzamide], 91.6 nM; for `Cc1nc(-c2cccc3nc(N[C@@H]4CCc5ccccc54)ccc23)no1` [Example 79, (R)-Indan-1-yl-[5-(5-methyl-[1,2,4]oxadiazol-3-yl)-quinolin-2-yl]-amine], 134 nM.

As for `O=C(NCc1cccc2nc(N[C@@H]3CCc4ccccc43)ccc12)c1ccc(F)cc1` [Example 80, 4-Fluoro-N-[2-((R)-indan-1-ylamino)-quinolin-5-ylmethyl]-benzamide], the Ki came to 34.4 nM. Same read-out and setting: the same measure for `Fc1ccc(CNCc2cccc3nc(N[C@@H]4CCc5ccccc54)ccc23)cc1` [Example 81, {5-[(4-Fluoro-benzylamino)-methyl]-quinolin-2-yl}-(R)-indan-1-yl-amine]: 151 nM; for `N=C(c1ccc(F)cc1)c1cccc2nc(N[C@@H]3CCc4ccccc43)ccc12` [Example 82, {5-[(4-Fluoro-phenyl)-imino-methyl]-quinolin-2-yl}-(R)-indan-1-yl-amine]: 7.82 nM; for `O=C(c1ccc(F)cc1)c1cccc2nc(N[C@@H]3CCc4ccccc43)ccc12` [Example 83, (4-Fluoro-phenyl)-[2-((R)-indan-1-ylamino)-quinolin-5-yl]-methanone]: 11.5 nM.

`N=C(c1ccccc1)c1cccc2nc(N[C@@H]3CCc4ccccc43)ccc12` [Example 84, [5-(Imino-phenyl-methyl)-quinolin-2-yl]-(R)-indan-1-yl-amine]: the Ki is 17.1 nM. Still for that read-out and setting: the same measure for `O=C(c1ccccc1)c1cccc2nc(N[C@@H]3CCc4ccccc43)ccc12` [Example 85, [2-((R)-Indan-1-ylamino)-quinolin-5-yl]-phenyl-methanone]: 24.1 nM; for `O=S(=O)(Nc1ccc(F)cc1)Nc1cccc2nc(N[C@@H]3CCc4ccccc43)ccc12` [Example 86, N-{2-[(1R)-2,3-dihydro-1H-inden-1-ylamino]quinolin-5-yl}-N′-(4-fluorophenyl)sulfamide]: 10 nM; for `Fc1cc(F)cc(CNc2cccc3nc(NC4Cc5ccccc5C4)ccc23)c1` [Example 87, N5-(3,5-Difluoro-benzyl)-N2-indan-2-yl-quinoline-2,5-diamine]: 56.2 nM.

For the compound `c1ccc2c(c1)CC(Nc1ccc3c(NCc4cccc5[nH]ccc45)cccc3n1)C2` [Example 88, N2-Indan-2-yl-N5-(1H-indol-4-ylmethyl)-quinoline-2,5-diamine], the inhibition constant Ki was 44.3 nM. As for `ON=C(c1ccc(F)cc1)c1cccc2nc(N[C@@H]3CCc4ccccc43)ccc12` [Example 89, (4-Fluoro-phenyl)-[2-((R)-indan-1-ylamino)-quinolin-5-yl]-methanone oxime], the Ki turned out to be 2.3 nM.

On to `COc1ccc(C(=O)c2cccc3nc(N[C@@H]4CCc5ccccc54)ccc23)cc1` [Example 93, [2-((R)-Indan-1-ylamino)-(4-methoxy-phenyl)-quinolin-5-yl]-methanone], for which the Ki is 15.8 nM. On the same count and under the same terms, for `O=C(c1cccc(F)c1)c1cccc2nc(N[C@@H]3CCc4ccccc43)ccc12` [Example 94, (3-Fluoro-phenyl)-[2-((R)-indan-1-ylamino)-quinolin-5-yl]-methanone] the value was 117 nM; for `COc1ccc(C(=NO)c2cccc3nc(N[C@@H]4CCc5ccccc54)ccc23)cc1` [Example 95, [2-((R)-Indan-1-ylamino)-(4-methoxy-phenyl)-quinolin-5-yl]-methanone oxime], 4.11 nM; for `Cc1ccc(C(=O)c2cccc3nc(N[C@@H]4CCc5ccccc54)ccc23)cc1` [Example 97, [2-((R)-Indan-1-ylamino)-(4-methyl-phenyl)-quinolin-5-yl]-methanone], 37.4 nM.

In the case of `CON=C(c1ccc(C)cc1)c1cccc2nc(N[C@@H]3CCc4ccccc43)ccc12` [Example 98, [2-((R)-Indan-1-ylamino)-(4-methyl-phenyl)-quinolin-5-yl]-methanone O-methyl-oxime], the Ki came to 49.8 nM. The same measure, in the same setting: the same measure for `Cc1ccc(C(=NO)c2cccc3nc(N[C@@H]4CCc5ccccc54)ccc23)cc1` [Example 99, [2-((R)-Indan-1-ylamino)-(4-methyl-phenyl)-quinolin-5-yl]-methanone oxime]: 1.8 nM; for `O=C(c1cc(F)cc(F)c1)c1cccc2nc(N[C@@H]3CCc4ccccc43)ccc12` [Example 100, (3,5-Difluoro-phenyl)-[2-((R)-indan-1-ylamino)-quinolin-5-yl]-methanone]: 264 nM; for “(4-Chloro-phenyl)-[2-((R)-indan-1-ylamino)-quinolin-5-yl]-methanone [Example 90]”: 49.7 nM.

System in another data set: not given
Assay: not given
Conditions: not given
Turning to `Cc1nc(-c2cccc3nc(N[C@@H]4CCc5ccccc54)ccc23)no1` [Example 79, (R)-Indan-1-yl-[5-(5-methyl-[1,2,4]oxadiazol-3-yl)-quinolin-2-yl]-amine], the melting point came to 105 °C.

Compound `O=C(NCc1cccc2nc(N[C@@H]3CCc4ccccc43)ccc12)c1ccc(F)cc1` [Example 80, 4-Fluoro-N-[2-((R)-indan-1-ylamino)-quinolin-5-ylmethyl]-benzamide] displayed a melting point of 145 °C. Still for that read-out and setting: for `ON=C(c1ccc(F)cc1)c1cccc2nc(N[C@@H]3CCc4ccccc43)ccc12` [Example 89, (4-Fluoro-phenyl)-[2-((R)-indan-1-ylamino)-quinolin-5-yl]-methanone oxime] the value was 184 °C.
